# Measured values published in patent US20230399361A1, “MACROCYCLIC PEPTIDES” (UNIVERSITY OF NOTRE DAME DU LAC, priority 2022, published 2023).
# Entries after “also recorded” stand apart in the source; their conditions may differ. *1 amine or outer side, *2 acyl side, *3 side chain or, on linkers, in order; H or OH if unused. Where a SMILES comes first, the peptide text is derived from it. Primed or numbered codes have the meaning given here. [ ]: non-standard residue; d: D form. The star is where a group is joined. aIle′ = Ile with backbone amide N-amino (hydrazide NNH2), CC[C@H](C)[C@@H](C(=O)[*:2])N(N)[*:1]; aVal = Val with backbone amide N-amino (hydrazide NNH2), CC(C)[C@@H](C(=O)[*:2])N(N)[*:1]; X2 = NN([C@@H](Cc1ccc(O)cc1)C(=O)[*:2])[*:1]; X1 = CC[C@H](C)[C@@H](C(=O)[*:2])N(N)[*:1]; N(NH2)LysNH2 = NCCCC[C@@H](C(N)=O)N(N)*; X3 = CC(C)[C@@H](C(=O)[*:2])N(N)[*:1]
# How the values were obtained:
# tauP301L [1] = target: T1, tauP301L (Homo sapiens, UniProt P10636, P618L); test: Cellular seeding assay, monomeric tauP301L co-incubated with inhibitor, HEK293 tau-RD(LM)-YFP biosensor cells; assay type: cell-based; settings: 0.19 μM monomeric tauP301L + heparin co-incubated 4 days, cells 48 h
# T1 construct: we expressed and purified full-length tau featuring a P301L mutation; His6 (N); made in house; host or cells: E. coli BL21 (DE3)
# Excerpt: Di-N-aminated Hexapeptides Block the Cellular Transmission of Tau Fibrils. […] This mode of propagation is important for the spread of NFTs, neuropil threads, and plaque-associated neurites—all of which contribute to the progression of Alzheimer's disease. To test whether NAP inhibitors are able to block the seeding activity of recombinant tauP301L, we employed HEK293 biosensor cells that stably express a tau-yellow fluorescent protein fusion [tau-RD(LM)-YFP]. When we treated these cells with preformed heparin-induced fibrils of tauP301L, we observed a large number of intracellular tau aggregates, as indicated by punctate fluorescence after 48 h.
# Mxyl-NAPs inhibit the seeding capacity of full-length tau in a biosensor cell assay. The ability to halt the prion-like spread of tau fibrils from diseased to healthy cells using designed molecules remains a considerable challenge. […] To test whether mxyl-NAPs could block this seeding activity, we treated HEK293 biosensor cells that express a tau yellow fluorescent protein fusion (tau-RD[LM]-YFP) with tauP301L incubated in the presence or absence of inhibitors. Heparin-induced fibrils of tauP301L grown in the absence of mxyl-NAPs led to strong intracellular FRET signal resulting from endogenous tau-RD(LM)-YFP aggregation. Quantitative brightness threshold-based analysis of puncta within the biosensor cells provided a positive baseline for seed-competent recombinant tau fibrils.
# Cellular Seeding Assay. The tauP301L was diluted to a final concentration of […] in an aggregation buffer containing 100 mM sodium acetate, 10 μM heparin, and 2 mM DTT, pH: 7.4. The protein was incubated in a microcentrifuge tube for 4 days at 37° C. with a shaking speed of 100 rpm. Control vials included those wherein (1) buffer was added in place of tauP301L and (2) buffer was added in place of heparin.
# For each experiment, cells were plated at a density of 15,000 cells/well in 96-well tissue culture plates.
# For seeding by monomeric tau, freshly purified recombinant tauP301L was co-incubated with heparin and NAPs for 4 days in an aggregation buffer at 37° C. (see the above section). Following incubation, the reaction mixture was diluted in the low-serum Opti-MEM medium, mixed with Lipofectamine 2000 in a 20:1 ratio (complex/Lipofectamine) and allowed to incubate for an additional 20 min at rt. A mixture of 0.19 μM tau+1.9 μM or 0.009 μM inhibitors (final concentrations) was added to the cells. Cells were incubated for an additional 48 h before taking measurements on a BioTek Cytation 5 cell imager and a microplate reader. 10×10 pictures/well were taken at 20× magnification under an FITC channel, and the punctate counting was carried out using built-in software. […] Every experiment included control wells (no tau, no heparin, and no NAP). All data plots were generated with SigmaPlot. Error bars shown are standard deviation from technical replicates.
# tauP301L [2] = target: T1, tauP301L; test: Transmission electron microscopy of heparin-induced tauP301L fibrils; assay type: biochemical; settings: 10 μM tauP301L + heparin, 20 μM NAP (2-fold molar excess), 96 h
# Experimental: This is consistent with previous reports showing that the endpoint ThT fluorescence and fibrilization lag time for full-length tau are particularly resistant to perturbation by inhibitors. […] To confirm the effect of NAPs on the growth of mature tau fibrils, we used transmission electron microscopy (TEM) to visualize the morphology and maturity of fibrillar species. Heparin-induced tauP301L fibrils were allowed to grow over 96 h in the presence or absence of inhibitors. Untreated tauP301L afforded large, helical, and amyloid-like filamentous fibrils.
# Inhibition of full-length tau fibrilization by mxyl-NAPs in TEM. To confirm the results from ThT assays, we used TEM to visualize tauP301L fibrils in the absence or presence of synthesized NAPs. As expected, heparin-induced tauP301L formed dense networks of mature fibrils (FIG. 8).
# Transmission Electron Microscopy. For analyzing fibrils by TEM, aggregation was carried out under conditions similar to the assay performed above but with ThT excluded and a final reaction volume of 100 μL. Samples were incubated in a microcentrifuge tube for 4 days at 37° C. with a mixing speed of 100 rpm. A 10 μL aliquot of the sample was then applied to 400-meshed formvar-/carbon-coated copper grids and negative-stained with 2% uranyl acetate. Micrographs were obtained on a JEOL 2011 transmission electron microscope at 200 kV.
# tauP301L [3] = target: T1, tauP301L; test: ThT fluorescence aggregation assay of recombinant tauP301L; assay type: biochemical; settings: 20 μM NAP (2-fold molar excess), 10 μM tauP301L, heparin, 48 h
# Excerpt: NAP Tau Mimics Inhibit Tau Fibrilization In Vitro. We chose thioflavin T (ThT), an amyloid specific fluorescent dye that binds to β-sheet assemblies, to first evaluate the effect of NAPs on recombinant tau aggregation. For these studies, we expressed and purified full-length tau featuring a P301L mutation frequently observed in patients with frontotemporal dementia and Parkinsonism linked to chromosome 17 (FTDP-17). This missense mutation leads to local structure destabilization around the amyloid-forming region resulting in faster aggregation. Recombinant tauP301L aggregated in the presence of equimolar heparin sulfate (t1/2=6.5±0.4 h) starting with a very short 0.5 h lag phase, followed by a 24 h exponential growth phase. […] Compounds 2 and 4 are mono- and diaminated hexapeptides derived from the R2 PHF6* aggregation-prone sequence, whereas compounds 5, 6, 12, and 13 are all derived from the R3 PHF6 sequence. Several other NAPs had no effect on endpoint ThT fluorescence or lacked consistent inhibition across repeated experiments. […] NaOAc buffer, as evidenced by intense ThT fluorescence after 48 h (FIG. 1B).
# Inhibition of full-length tau aggregation by mxyl-NAPs in a ThT assay. […] TauP301L ([…]) aggregated upon incubation with heparin over the course of 2 days, leading to high ThT fluorescence. […] We also synthesized linear and scrambled controls corresponding to each of the NAP inhibitors.
# ThT Fluorescence Aggregation Assay. Recombinant tauP301L (10 μM final concentration) and NAP inhibitors (20 μM final concentration) were mixed in an aggregation buffer (100 mM sodium acetate, 10 μM ThT, 10 μM heparin, 2 mM DTT, and 0.5% DMSO, pH: 7.4) in a 96-well clear bottom black plate with a final reaction volume of 200 μL. The plate was then sealed with a clear sealing film and allowed to incubate at 37° C. with continuous shaking in a Biotek Synergy H1 microplate reader. An automated method was used to carry out ThT fluorescence measurements at an excitation wavelength of 444 nm and an emission wavelength of 485 nm at an interval of every 5 min for 48 h. Experiments were carried out in technical replicates on at least 2 different days. Every experiment included control wells that lacked tauP301L, heparin, or NAPs. The average signal from control wells lacking tau was used to subtract the background fluorescence, and the average of the first and last 10 data points of tau+heparin (no inhibitor) wells, after blank subtraction, was used to normalize the data. All data plots were generated with SigmaPlot.
# T1 sequence (P10636 1-383 isoform P10636-6 P243L): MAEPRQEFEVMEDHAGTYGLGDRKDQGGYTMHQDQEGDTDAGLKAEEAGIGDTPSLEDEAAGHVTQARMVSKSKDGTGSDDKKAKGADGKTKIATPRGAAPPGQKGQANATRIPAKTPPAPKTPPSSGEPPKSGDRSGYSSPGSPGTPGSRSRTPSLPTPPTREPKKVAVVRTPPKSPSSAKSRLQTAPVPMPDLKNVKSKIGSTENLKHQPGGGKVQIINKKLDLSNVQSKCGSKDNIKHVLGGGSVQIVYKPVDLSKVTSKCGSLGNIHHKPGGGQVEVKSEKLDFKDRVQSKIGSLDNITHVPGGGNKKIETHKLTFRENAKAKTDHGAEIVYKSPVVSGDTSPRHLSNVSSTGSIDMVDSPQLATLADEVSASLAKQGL
Compound,seeding capacity of tauP301L (intracellular puncta) (tauP301L [1]; 0.009 μM inhibitor),seeding capacity of tauP301L (intracellular puncta) (tauP301L [1]; 1.9 μM inhibitor),tauP301L fibril morphology by TEM (tauP301L [2]),endpoint ThT fluorescence of tauP301L (tauP301L [3])
"CC[C@H](C)[C@@H](C(=O)N[C@H](C(=O)N(N)[C@@H](Cc1ccc(O)cc1)C(=O)N[C@@H](CCCCN)C(N)=O)C(C)C)N(N)C(=O)[C@H](CCC(N)=O)NC(=O)[C@@H](NC(C)=O)C(C)C [Compound 12, Ac-Val-Gln-aIle-Val-aTyr-Lys-NH2] (Ac-VQ[X1]V[X2]K-NH2)",less pronounced,significantly reduced seeding capacity; also recorded: sufficient to prevent seeding,particularly effective at attenuating fibril growth; also recorded: non-fibrillary amorphous aggregates similar to control,significantly reduce
"CC[C@H](C)[C@H](NC(=O)[C@H](CCC(N)=O)NC(=O)[C@@H](NC(C)=O)C(C)C)C(=O)N(N)[C@H](C(=O)N[C@@H](Cc1ccc(O)cc1)C(=O)N(N)[C@@H](CCCCN)C(N)=O)C(C)C [Compound 13, Ac-Val-Gln-Ile-aVal-Tyr-aLys-NH2] (Ac-VQI[X3]Y-{N(NH2)LysNH2})",less pronounced,significantly reduced seeding capacity; also recorded: sufficient to prevent seeding,particularly effective at attenuating fibril growth; also recorded: non-fibrillary amorphous aggregates similar to control,significantly reduce
Ac-aVal-Gln-aIle-Ile-Asn-Lys-NH2 (Ac-[aVal]Q[aIle′]INK-NH2; SMILES CC[C@H](C)[C@H](NC(=O)[C@H]([C@@H](C)CC)N(N)C(=O)[C@H](CCC(N)=O)NC(=O)[C@H](C(C)C)N(N)C(C)=O)C(=O)N[C@@H](CC(N)=O)C(=O)N[C@@H](CCCCN)C(N)=O) [Compound 4],far weaker anti-seeding activity,far weaker anti-seeding activity; also recorded: ineffective,particularly effective at attenuating fibril growth; also recorded: non-fibrillary amorphous aggregates similar to control,significantly reduce
